Measured values taken from patent US20220378816A1, “2-BENZYLIDENE HYDRAZINOADENOSINE COMPOUNDS HAVING A2A ADENOSINE RECEPTOR AGONISTIC ACTIVITY” (ACADEMY OF MILITARY MEDICAL SCIENCES, priority 2019, published 2022).

Key:
[1] = biological target: T1, (human) A2A adenosine receptors (Homo sapiens, UniProt P29274); assay: Radioligand binding test ([3H]CGS21680 displacement, hA2A HEK-293 cell membranes); conditions: for Ki: calculated from IC50 by Cheng and Prusoff equation, [S] 25 nM, Km […] nM, read-out: Ki (inhibition constant)
T1 construct: purchased PerkinElmer Research Products (Boston, Mass.); host or cells: HEK-293
Procedure: Cell membranes stably transfected with (human) A2A adenosine receptors were prepared in HEK-293 cells. The cell membranes were obtained from PerkinElmer Research Products (Boston, Mass.).
The A2A adenosine receptors used were all expressed in the cell membranes. […] (final 25 nM) was added to the diluted cell membrane, and mixed well. 50 μL of the prepared dilution solution of cell membrane was transferred to the 384-well Opti-plate containing compound and incubated at 25° C. for 90 minutes. 100 μL of 0.5% Polyethyleneimine solution (PEI) was added to […]-96 GF/B filter plate, and soaked for 90 minutes at 4° C., then 500 μL of washing buffer/well (50 mM Tris-HCl pH 7.4, 154 mM NaCl) was transferred with Cell Harvester to wash the […]-96 GF/B filter plate twice. The mixed system in the Opti-plate was transferred to the washed […]-96 GF/B filter plate, 500 μL of washing buffer/well (50 mM Tris-HCl pH 7.4, 154 mM NaCl) was used to wash the […]-96 GF/B filter plate 9 times. Incubation was performed in 37° C. incubator for 3 minutes. 40 μL of ULTIMA GOLD scintillation solution (Perkin Elmer, Cat #77-16061) was added to each well, CPM (count per minute) value was read by a MicroBeta liquid scintillation counter (PerkinElmer).

[2] = biological target: human adenosine receptor A2A (Homo sapiens, UniProt P29274); assay: Adenosine receptor A2A cAMP test (LANCE Ultra cAMP, hADORA2A-HEK293 cells); assay type: cell-based; conditions: for hA2AAR agonist function: cAMP test; for EC50: stimulating production of cyclic AMP, hADORA2A-HEK293 cells
Description: Experimental reagents and consumables: DMEM/F12, G418, Penicillin-Streptomycin, Versene Solution, HEPES, Hank's Buffered Saline Solution, PBS (pH 7.4, 1×, sterile), FBS, BSA Stabilizer 7.5%, Rolipram, NECA were separately purchased from Gibico, Hyclone and Sigma. LANCE® Ultra cAMP kit (Eu-cAMP tracer, Ulight-anti-cAMP reagent, cAMP detection buffer) and hADORA2A-HEK293 cells were purchased from PerkinElmer Research Products (Boston, Mass.). All other reagents were of analytical grade and obtained from commercial sources. 384-well polypropylene microplate and 384-well solid white plate were purchased from Labcyte and Corning, respectively.
The cells stably expressing human adenosine receptor A2A (hADORA2A-HEK293 cells) were cultured in DMEM/F12 medium containing 10% FBS, 1×Penicillin-Streptomycin and 400 μg/ml G418 in a 37° C. and 5% CO2 environment. Before the experiment, the cells were digested with Versene solution, and the cells were collected by centrifugation at 200 g and room temperature for 5 minutes, and finally resuspended with assay buffer (Hank's buffered saline solution, containing 5 mM HEPES, 0.1% BSA stabilizer and 10 μM Rolipram, pH 7.4). The TECAN automated liquid handling workstation was used to dilute the compound in a 384-well polypropylene microplate with DMSO to 11 concentration points in a 3-fold gradient to prepare the compound source plate, in which the 11 concentration points of the compound were 10 mM, 3.33 mM, 1.11 mM., 0.3 7mM, 0.1 2 mM, 0.041 mM, 0.013 mM, 4.57×10^−3 mM, 1.52×10^−3 mM, 5×10^−4 mM and 1.7×10^−4 mM. The Echo Acoustic Liquid Handler (Labcyte) was used to transfer the test compound from the compound source plate to an assay plate, in which the transfer volume of the compound was 10 nl/well. The hADORA2A-HEK293 cell suspension was diluted with assay buffer to 30,000 cells/ml, and the cell suspension was transferred to the assay plate at a volume of 10 μl/well (300 cells/well). The assay plate was centrifuged at 150 g for 1 minute and pre-incubated at room temperature for 30 minutes. The Eu-cAMP tracer working solution (Eu-cAMP tracer 40 μl, cAMP detection buffer 1.96 ml) (5 μl/well) was added to the assay plate, and then the Ulight-anti-cAMP working solution (13 μl of Ulight-anti-cAMP reagent and 1.95 ml of cAMP detection buffer) (5 µl/well) was added to the assay plate. The assay plate was rotated at 150 g for 30 seconds and incubated at room temperature for 30 minutes. The EnVision multimode plate reader (PerkinElmer) was used determine the level of cyclic adenosine monophosphate in the final solution (λex=320 nm, λem=665 nm & 615 nm). The EC50 (nM) value of the compound interacting with the A2A adenosine receptor to stimulate the production of cyclic adenosine monophosphate was calculated and the A2A receptor agonist titer of the compound was expressed as the EC50 (nM) value.

[3] = test system: blood-brain barrier; assay: Animal experiment of blood-brain barrier disruption (FITC-Dextran in brain of SD rats); assay type: in vivo
Procedure: Fluorescein-labeled dextran FITC-Dextran (CAS: 60842-46-8) with molecular weight of 10,000 MW was purchased from TCI (Shanghai) Development Co., Ltd.; PBS solution and experimental animal SD rats were obtained from commercial sources.
FITC-Dextran solutions with six concentration gradients ([…], 10 μg/ml) were prepared with PBS, and standard curve of FITC-Dextran concentration was made by using microplate reader (λex=490 nm, λem=520 nm). Additionally, 10 mg/ml FITC-Dextran solution was prepared, Compound 5 was added to PBS solution to prepare 1 mg/ml solution. 1 ml of 10 mg/ml FITC-Dextran solution and 1 ml of 1 mg/ml Compound 5 in PBS solution were taken and mixed to prepare administration solvent. 1 ml of 10mg/ml FITC-Dextran solution and 1 ml of PBS solution were taken and mixed to prepare blank control solution. 6 SD rats were injected with 2 ml of the administration solvent via tail vein, respectively, while another 6 SD rats were injected with 2 ml of the blank control solution via tail vein. […] The solution to be tested was subjected to fluorescence detection by using the microplate reader (λex=490 nm, λem=520 nm).
The measured fluorescence value by the microplate reader was converted into the corresponding FITC-Dextran average concentration according to the obtained standard curve of FITC-Dextran concentration.

Chain of human adenosine receptor A2A (P29274 whole entry): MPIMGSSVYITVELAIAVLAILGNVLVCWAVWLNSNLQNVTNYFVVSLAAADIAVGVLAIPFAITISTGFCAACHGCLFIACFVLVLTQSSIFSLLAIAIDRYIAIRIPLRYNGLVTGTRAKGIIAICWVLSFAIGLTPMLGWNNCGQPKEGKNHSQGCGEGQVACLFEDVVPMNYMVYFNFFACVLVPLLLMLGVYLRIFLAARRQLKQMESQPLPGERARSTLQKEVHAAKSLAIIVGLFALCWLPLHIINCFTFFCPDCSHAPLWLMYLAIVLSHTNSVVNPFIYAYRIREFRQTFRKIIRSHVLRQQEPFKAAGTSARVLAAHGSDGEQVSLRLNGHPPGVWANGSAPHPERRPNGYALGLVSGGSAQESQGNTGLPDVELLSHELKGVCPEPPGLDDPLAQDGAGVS
T1 sequence (P29274 whole entry): as above

For `Nc1nc(N/N=C/c2ccc(OCc3ccccc3)c(OCc3ccccc3)c2)nc2c1ncn2[C@@H]1O[C@H](CO)[C@@H](O)[C@H]1O` [Compound 2, (2R,3R,4S,5R)-2-{6-amino-2-{2-[(E)-3,4-bis(benzyloxy)benzylidene]hydrazino}-9H-purin-9-yl}-5-(hydroxymethyl)tetrahydrofuran-3,4-diol], which IC50 [1] is on record?
The IC50 was 3.9 nM.

And the Ki [1]?
Its Ki is 1.8 nM.

And the “hA2AAR agonist function” value [2]?
Its value is “shown as hA2AAR agonists”.

And the EC50 [2]?
Its EC50 is 0.64 nM.

And the melting point?
Its melting point is 220 °C.

For `Nc1nc(N/N=C/c2ccc(OCc3ccc(F)cc3)cc2)nc2c1ncn2[C@@H]1O[C@H](CO)[C@@H](O)[C@H]1O` [Compound 5, (2R,3R,4S,5R)-2-{6-amino-2-{2-{(E)-4-[(4-fluorobenzyl)oxy]benzylidene}hydrazino}-9H-purin-9-yl}-5-(hydroxymethyl)tetrahydrofuran-3,4-diol], which IC50 [1] is on record?
Its IC50 is 11.7 nM.

What about the Ki [1] of the same compound?
Its Ki is 5.5 nM.

And the “hA2AAR agonist function” value [2]?
The value was “shown as hA2AAR agonists”.

What about the EC50 [2] of the same compound?
The EC50 was 4.1 nM.

What about the “opening of the blood-brain barrier” value ([3]; FITC-Dextran co-injected) of the same compound?
The value was “could open the blood-brain barrier”.

And the “FITC-Dextran concentration in brain” value ([3]; tail vein injection with FITC-Dextran (10,000 MW), brain taken after 30 minutes, average)?
Its value is 0.11 µg/mL.

What about the melting point of the same compound?
Its melting point is 144 °C.
